Data on 3 substances can be found in patent US8445006B2, “Biomolecular coating for implants” (Georgia Tech Research Corporation, priority 2006, dated 2013).

Assay [1] deals with rat tibia cortical bone. Kind of assay: Rat tibia cortical bone implantation, histology and bone-implant contact histomorphometry. In kind it is in vivo. The settings on record: 4 weeks; for histology: bone matrix around implants: poly(OEGMA) brush implants, 0.9 pmol/cm^2. The protocol:
(§1) Commercially pure titanium implants (FIG. 4) were sonicated in de-ionized water for 20 min to remove surface debris. Implants were then dipped in 4% HF for 30 sec to remove the existing oxide layer and then incubated in 35% HNO3 for 30 min at 50° C. to regenerate a new oxide coating. Samples were transferred to 1.8 N NaOH for 1 min to terminate the oxidation reaction. Implants were then rinsed and boiled in de-ionized water for 1 h. To create the bioactive coating, the implants were incubated in 20 μg/ml GFOGER peptide (SEQ ID NO:1) or type I collagen solution for 1 h. Control titanium rods were incubated in PBS.
(§2) Implantations were conducted in accordance with an IACUC-approved protocol. Both hind legs of anesthetized, mature Sprague-Dawley male rats (250-350 g) were shaved and scrubbed with alcohol. The medial aspect of the proximal tibial metaphysis was exposed through an antero-medial skin incision, leaving the medial collateral ligament intact. Using a saline-cooled drill, two defects were created in each tibia. Sterile implant rods were press fit into the defects. Periosteum was mobilized and sutured over the implantation site, and the skin was closed with wound clips. Subjects were euthanized after 4 weeks and proximal tibiae were fixed in neutral buffered formalin for histology or recovered without fixation and maintained in PBS-moistened gauze for immediate mechanical testing.
Excised tibiae were fixed in 10% neutral buffered formalin for 1 week. […] Ground sections of 50-80 μm were generated using the Exakt Grinding System™. Two longitudinal ground sections were generated per tibia, each containing two titanium plugs inserted transverse to the tibia's long axis. Sections were then stained with Sanderson's Rapid Bone Stain™ and a van Gieson counter stain. Bone implant contact (BIC) was measured as the percentage of implant's circumference that was in direct contact with bone tissue (Adobe Photoshop® CS imaging software).
(§3) To evaluate the performance of the bioactive GFOGER peptide (SEQ ID NO:1) treatment in vivo, osseointegration in a rat tibia cortical bone model was quantified using quantitative histomorphometry and pull-out mechanical testing. A cylindrical titanium implant rod with a tapered stop collar was designed (FIG. 4). The tapered head ensures that all implants are inserted into the bone at the same depth, guaranteeing uniform bone contact among treatments. Using a saline-cooled drill, two defects 2 mm in diameter were created in the medial aspect of the proximal tibial metaphysis. Implant rods consisting of GFOGER peptide (SEQ ID NO:1) functionalized or untreated (control) titanium were press fit into the cortical defects. After four weeks, the rat tibiae were harvested and evaluated for bone apposition by histological staining and mechanical integration by pull-out testing. […] Representative micrographs show 50-80 μm longitudinal ground sections of rat tibia stained with Sanderson's Rapid Bone Stain™ and van Gieson counterstain. Cells stain dark to light blue, soft tissue elements stain blue-green, and bone matrix stains yellow orange to autumn orange.
(§4) Osseointegration of implants in a rat tibia cortical bone model was quantified to evaluate the in vivo performance of the engineered titanium surfaces in bone healing. Importantly, this in vivo model provides a rigorous platform to evaluate implant coating function in a relevant orthopaedic setting. Two 2.0-mm diameter defects were drilled into the medial aspect of the proximal tibial metaphysis using a saline cooled drill. Tapered cylindrical implants (FIG. 4) of clinical-grade titanium were press-fit into the cortical defects.

For assay [2], the system named is rat tibia cortical bone. Put plainly: Rat tibia cortical bone implantation, pull-out mechanical testing. In kind it is in vivo. The protocol:
as §1, §2, §3, §4

The test system of assay [3] is bone marrow stromal cells. Put plainly: Osteoblast-specific gene expression by qRT-PCR. It is filed as cell-based, rat. The procedure: Primary bone marrow stromal cells were harvested from the femora of young adult male Wistar rats in accordance with an IACUC-approved protocol. After excision, hindleg femora and tibiae were cleared of soft tissue and rinsed in growth medium (α-minimal essential medium supplemented with 10% fetal bovine serum, 1% penicillin-streptomycin, and 0.3 μg/ml amphotericin B). The ends of the long bones were then removed and the marrow space was flushed with culture medium (3-5 ml), using a syringe with an 18-gauge needle. Marrow isolates were pooled, centrifuged, resuspended in growth medium, and seeded for adhesion-dependent selection on tissue culture polystyrene dishes. Non-adherent hematopoietic cells were removed during subsequent medium exchanges, which occurred every other day. Cells were subcultured every two days according to standard techniques. For in vitro osteogenic assays, cells were seeded at 10,000 cells/cm^2 in growth medium. After 24 h, cultures were maintained in osteogenic medium consisting of growth medium supplemented with 50 μg/ml L-ascorbic acid and 3 mM sodium β-glycerophosphate.
Gene expression was analyzed by qRT-PCR. Total RNA was isolated at 7 days in culture using the Qiagen RNeasy RNA isolation kit. During RNA isolation and purification, samples were treated with DNaseI (27 Kunitz units/sample) for 15 min at room temperature to eliminate any genomic DNA contamination. The concentration of purified RNA was quantified using a NanoDrop™ (NanoDrop Technologies) and 1 μg of total RNA was used to synthesize cDNA templates by oligo(dT) priming using the Superscript First-Strand cDNA Synthesis System™.
qRT-PCR was performed with the ABI Prism 7700 Sequence Detection System (Applied Biosystems; 40 cycles; melting for 15 s at 95° C.; annealing and extending for 60 s at 60° C.) using SYBR Green DNA intercalating dye. Gene transcript concentration in the sample cDNA template solutions was quantified by preparing a functional range of dilutions from an absolute standard for each gene. Linear standard curves were then generated by plotting the log of the known concentration versus the CT value (the cycle number at which the fluorescence reached a threshold level). Oligonucleotide primers (Table 1) were designed using Primer Express™ software (Applied Biosystems).

In assay [4] the test system is osteoblastic cells. Kind of assay: In vitro bioresistance and adhesive capacity of poly(OEGMA) brushes on titanium. In kind it is cell-based. The settings on record: serum-containing media, osteoblastic cells 1 h. The protocol: Surfaces were incubated in serum-containing media for various times and subsequently challenged with osteoblastic cells for 1 h.
[5] abbreviates: 7 day cultures, adsorbed coating vs untreated titanium.
Where [6] appears, read: 4 weeks, tethered brushes 0.9 pmol/cm^2.
Setting [7] is: 7-day cultures, tethered brushes vs RGD supports.

Take “GGYGGGPC(GPP)5GFOGER(GPP)5GPC [GFOGER peptide]”: the “bone apposition (bone implant contact, BIC)” value in assay [1] (passively coated implants vs untreated titanium) is “nearly two-fold enhancement”. The “histology: peri-implant bone mineral” value in assay [1] (passively coated titanium implants (20 μg/ml)) was “substantial and contiguous bone mineral”. The “mechanical fixation (pull-out force)” value in assay [2] (4 weeks, vs type I collagen or untreated titanium) was “significantly higher mechanical fixation”. For the same substance, in assay [3] (setting [5]), the Runx2/Cbfa1 expression levels entry is “elevated”, the “bone sialoprotein gene expression” value was “greater levels of gene expression” and the osteocalcin gene expression result is “greater levels of gene expression”.
For “GRGDSPC [RGD peptide, linear RGD oligopeptide purchased from BACHEM; primarily supports αvβ3-mediated adhesion, reference compound]”, in assay [4], the “cell adhesion on ligand-presenting poly(OEGMA) brushes” value was “comparable to the unmodified titanium”. Further, in assay [1], the “histology: bone matrix around implants” value was “Less bone tissue was observed”. For the same substance, the “bone apposition and mechanical fixation among brush implant groups” value in assay [2] (4 weeks, poly(OEGMA) brush implants) is recorded as “no differences in bone apposition or mechanical fixation”. In addition, in assay [3] (tethered brushes), the “any differentiation marker vs serum-exposed unmodified titanium” value is “No differences were observed”.
Consider “FNIII7-10: monobiotinylated recombinant fibronectin fragment spanning the 7-10th type III repeats of fibronectin; α5β1 integrin ligand”, for which the “cell adhesion on ligand-presenting poly(OEGMA) brushes” value in assay [4] is “comparable to the unmodified titanium”. Besides, in assay [1] (passively coated (20 μg/ml) vs unmodified titanium or pFN-coated), the bone-implant apposition entry was “enhanced bone-implant apposition”. Besides, the “histology: bone matrix around implants” value in assay [1] is “extensive and contiguous bone matrix”. Besides, the “bone-implant contact area vs unmodified titanium implant” value in assay [1] (tethered brush implants) is listed as “significantly higher”. Moreover, the “mechanical fixation vs unmodified titanium” value in assay [2] (4 weeks, tethered brushes) is listed as “higher mechanical fixation”. In addition, in assay [2] (setting [6]), the “enhancement in fixation over RGD-tethered implants” value is on record as 2.9 fold and the “improvement in fixation compared to unmodified poly(OEGMA) brush coating” value is on record as about 4 fold. Moreover, the “dependence of mechanical fixation on tethered surface density” value in assay [2] (varying tethered densities, hyperbolic relationship R^2=0.87) is on record as “increased with FNIII7-10 surface density”. Moreover, in assay [3] (setting [7]), the “bone sialoprotein (BSP) transcript levels” value is reported as “increased transcript levels” and the “osteocalcin (OCN) transcript levels” value is listed as “increased transcript levels”. Moreover, the Runx2/Cbfa1 expression levels result in assay [3] (7-day cultures, tethered brushes vs equimolar RGD brushes) is given as “elevated”.
